Measurements: the supplement of paper PMC13207355

Assays:
Settings in all cases: exposure time: 72 h
E28 [1] = patient-derived glioblastoma stem cells of classical subtype; assay: phenotypic distance (Euclidean, principal components) from DMSO controls (arbitrary units); higher = stronger morphological change
E34 [2] = patient-derived glioblastoma stem cells of proneural subtype; assay: as above
FT3469 [3] = normal neural stem cell line; assay: as above
E57 [4] = patient-derived glioblastoma stem cells of mesenchymal subtype; assay: as above
E13 [5] = patient-derived glioblastoma stem cells of classical subtype; assay: as above
E31 [6] = patient-derived glioblastoma stem cells of proneural subtype; assay: as above
E21 [7] = patient-derived glioblastoma stem cells of mesenchymal subtype; assay: as above
E28 [8] = assay: surviving fraction (nuclei count normalised to DMSO); higher = more cells surviving (less toxic)
E34 [9] = assay: as above
FT3469 [10] = assay: as above
E57 [11] = assay: as above
E13 [12] = assay: as above
E31 [13] = assay: as above
E21 [14] = assay: as above
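Throughout, for phenotypic distance (Euclidean, principal components) from DMSO controls: cell Painting imaging in 384-well plates, CellProfiler features reduced to at least 20 principal components, Euclidean distance versus same-plate DMSO vehicle wells (0.1% v/v), median over six images per well.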
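Throughout, for surviving fraction (nuclei count normalised to DMSO): nuclei counted by high-content imaging of Hoechst-stained cells in laminin-coated 384-well plates, relative to 0.1% DMSO vehicle wells, with staurosporine as cell-death control.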

Clc1ccc(C(Cn2ccnc2)OCc2ccsc2Cl)c(Cl)c1 (stereo not drawn) [Tioconazole]
Settings | phenotypic distance | surviving fraction
E13 [5], 4.1 nM | 0.434 | –
E13 [5], 12.3 nM | 0.591 | –
E13 [5], 37 nM | 0.952 | –
E13 [5], 111.1 nM | 0.719 | –
E13 [5], 333.3 nM | 0.807 | –
E13 [5], 1000 nM | 0.71 | –
E13 [5], 3000 nM | 0.892 | –
E13 [12], 4.1 nM | – | 0.996
E13 [12], 12.3 nM | – | 0.959
E13 [12], 37 nM | – | 1.02
E13 [12], 111.1 nM | – | 0.98
E13 [12], 333.3 nM | – | 0.992
E13 [12], 1000 nM | – | 1.01
E13 [12], 3000 nM | – | 0.857
E21 [7], 4.1 nM | 0.639 | –
E21 [7], 12.3 nM | 0.48 | –
E21 [7], 37 nM | 0.312 | –
E21 [7], 111.1 nM | 0.6 | –
E21 [7], 333.3 nM | 0.27 | –
E21 [7], 1000 nM | 0.663 | –
E21 [7], 3000 nM | 1.33 | –
E21 [14], 4.1 nM | – | 1.05
E21 [14], 12.3 nM | – | 1.01
E21 [14], 37 nM | – | 0.998
E21 [14], 111.1 nM | – | 1.03
E21 [14], 333.3 nM | – | 1
E21 [14], 1000 nM | – | 0.876
E21 [14], 3000 nM | – | 0.887
E28 [1], 4.1 nM | 0.718 | –
E28 [1], 12.3 nM | 0.644 | –
E28 [1], 37 nM | 0.417 | –
E28 [1], 111.1 nM | 0.495 | –
E28 [1], 333.3 nM | 0.688 | –
E28 [1], 1000 nM | 0.954 | –
E28 [1], 3000 nM | 0.695 | –
E28 [8], 4.1 nM | – | 1.06
E28 [8], 12.3 nM | – | 1.11
E28 [8], 37 nM | – | 1.05
E28 [8], 111.1 nM | – | 1.13
E28 [8], 333.3 nM | – | 1.03
E28 [8], 1000 nM | – | 1.02
E28 [8], 3000 nM | – | 0.843
E31 [6], 4.1 nM | 0.731 | –
E31 [6], 12.3 nM | 0.483 | –
E31 [6], 37 nM | 0.639 | –
E31 [6], 111.1 nM | 0.611 | –
E31 [6], 333.3 nM | 0.715 | –
E31 [6], 1000 nM | 0.918 | –
E31 [6], 3000 nM | 1.46 | –
E31 [13], 4.1 nM | – | 0.857
E31 [13], 12.3 nM | – | 0.993
E31 [13], 37 nM | – | 1.08
E31 [13], 111.1 nM | – | 1.11
E31 [13], 333.3 nM | – | 0.972
E31 [13], 1000 nM | – | 1.02
E31 [13], 3000 nM | – | 0.969
E34 [2], 4.1 nM | 0.558 | –
E34 [2], 12.3 nM | 0.535 | –
E34 [2], 37 nM | 0.702 | –
E34 [2], 111.1 nM | 0.614 | –
E34 [2], 333.3 nM | 0.634 | –
E34 [2], 1000 nM | 0.943 | –
E34 [2], 3000 nM | 1.08 | –
E34 [9], 4.1 nM | – | 1.14
E34 [9], 12.3 nM | – | 0.871
E34 [9], 37 nM | – | 0.929
E34 [9], 111.1 nM | – | 0.959
E34 [9], 333.3 nM | – | 0.947
E34 [9], 1000 nM | – | 0.894
E34 [9], 3000 nM | – | 0.776
E57 [4], 4.1 nM | 0.709 | –
E57 [4], 12.3 nM | 0.457 | –
E57 [4], 37 nM | 0.46 | –
E57 [4], 111.1 nM | 0.302 | –
E57 [4], 333.3 nM | 0.722 | –
E57 [4], 1000 nM | 0.606 | –
E57 [4], 3000 nM | 1.69 | –
E57 [11], 4.1 nM | – | 0.962
E57 [11], 12.3 nM | – | 0.998
E57 [11], 37 nM | – | 0.997
E57 [11], 111.1 nM | – | 1.04
E57 [11], 333.3 nM | – | 0.973
E57 [11], 1000 nM | – | 0.922
E57 [11], 3000 nM | – | 0.988
FT3469 [3], 4.1 nM | 1.14 | –
FT3469 [3], 12.3 nM | 1.57 | –
FT3469 [3], 37 nM | 0.375 | –
FT3469 [3], 111.1 nM | 0.556 | –
FT3469 [3], 333.3 nM | 0.563 | –
FT3469 [3], 1000 nM | 0.69 | –
FT3469 [3], 3000 nM | 1.37 | –
FT3469 [10], 4.1 nM | – | 0.871
FT3469 [10], 12.3 nM | – | 1.12
FT3469 [10], 37 nM | – | 0.948
FT3469 [10], 111.1 nM | – | 1.08
FT3469 [10], 333.3 nM | – | 1.01
FT3469 [10], 1000 nM | – | 0.829
FT3469 [10], 3000 nM | – | 0.787
